In ChEMBL document CHEMBL2073856, “Carrier-mediated hepatobiliary transport of a novel antifolate, N-[4-[(2,4-dianninopteridine-6-yl)methyl]-3,4-dihydro-2H-1,4-benzothiazin-7-yl]carbonyl-L-homoglutamic acid, in rats” (Drug Metab Dispos, 2001):

B1: ATP-binding cassette sub-family C member 2 (Rattus norvegicus) (protein)
chain: MDKFCNSTFWDLSLLESPEADLPLCFEQTVLVWIPLGFLWLLAPWQLYSVYRSRTKRSSITKFYLAKQVFVVFLLILAAIDLSLALTEDTGQATVPPVRYTNPILYLCTWLLVLAVQHSRQWCVRKNSWFLSLFWILSVLCGVFQFQTLIRALLKDSKSNMAYSYLFFVSYGFQIVLLILTAFSGPSDSTQTPSVTASFLSSITFSWYDRTVLKGYKHPLTLEDVWDIDEGFKTRSVTSKFEAAMTKDLQKARQAFQRRLQKSQRKPEATLHGLNKKQSQSQDVLVLEEAKKKSEKTTKDYPKSWLIKSLFKTFHVVILKSFILKLIHDLLVFLNPQLLKLLIGFVKSSNSYVWFGYICAILMFAVTLIQSFCLQSYFQHCFVLGMCVRTTVMSSIYKKALTLSNLARKQYTIGETVNLMSVDSQKLMDATNYMQLVWSSVIQITLSIFFLWRELGPSILAGVGVMVLLIPVNGVLATKIRNIQVQNMKNKDKRLKIMNEILSGIKILKYFAWEPSFQEQVQGIRKKELKNLLRFGQLQSLLIFILQITPILVSVVTFSVYVLVDSANVLNAEKAFTSITLFNILRFPLSMLPMVTSSILQASVSVDRLERYLGGDDLDTSAIRRVSNFDKAVKFSEASFTWDPDLEATIQDVNLDIKPGQLVAVVGTVGSGKSSLVSAMLGEMENVHGHITIQGSTAYVPQQSWIQNGTIKDNILFGSEYNEKKYQQVLKACALLPDLEILPGGDMAEIGEKGINLSGGQKQRVSLARAAYQDADIYILDDPLSAVDAHVGKHIFNKVVGPNGLLAGKTRIFVTHGIHFLPQVDEIVVLGKGTILEKGSYRDLLDKKGVFARNWKTFMKHSGPEGEATVNNDSEAEDDDDGLIPTMEEIPEDAASLAMRRENSLRRTLSRSSRSSSRRGKSLKNSLKIKNVNVLKEKEKEVEGQKLIKKEFVETGKVKFSIYLKYLQAVGWWSILFIILFYGLNNVAFIGSNLWLSAWTSDSDNLNGTNNSSSHRDMRIGVFGALGLAQGICLLISTLWSIYACRNASKALHGQLLTNILRAPMRFFDTTPTGRIVNRFSGDISTVDDLLPQTLRSWMMCFFGIAGTLVMICMATPVFAIIIIPLSILYISVQVFYVATSRQLRRLDSVTKSPIYSHFSETVTGLPIIRAFEHQQRFLAWNEKQIDINQKCVFSWITSNRWLAIRLELVGNLVVFCSALLLVIYRKTLTGDVVGFVLSNALNITQTLNWLVRMTSEAETNIVAVERISEYINVENEAPWVTDKRPPADWPRHGEIQFNNYQVRYRPELDLVLKGITCNIKSGEKVGVVGRTGAGKSSLTNCLFRILESAGGQIIIDGIDVASIGLHDLRERLTIIPQDPILFSGSLRMNLDPFNKYSDEEVWRALELAHLRSFVSGLQLGLLSEVTEGGDNLSIGQRQLLCLGRAVLRKSKILVLDEATAAVDLETDSLIQTTIRKEFSQCTVITIAHRLHTIMDSDKIMVLDNGKIVEYGSPEELLSNRGSFYLMAKEAGIENVNHTEL

What was measured:
[1] = molecular target: ATP-binding cassette sub-family C member 2 (Rattus norvegicus, UniProt Q63120); experiment: TP_TRANSPORTER: inhibition of DNP-SG uptake in bile canalicular membrane vesicles from SD rat; type: functional, cell membranes, Sprague-Dawley, Bile canalicular membrane vesicle
[2] = substrate: Nc1nc(N)c2nc(CN3CCSc4cc(C(=O)NC(CCCC(=O)O)C(=O)O)ccc43)cnc2n1; experiment: TP_TRANSPORTER: uptake in bile canalicular membrane vesicles from SD rat; type: functional, cell membranes, Sprague-Dawley, Bile canalicular membrane vesicle

Molecule | Ki [1] | Km [2]
Nc1nc(N)c2nc(CN3CCSc4cc(C(=O)NC(CCCC(=O)O)C(=O)O)ccc43)cnc2n1 (configuration not stated) | 162 µM | 
B1 |  | 207 µM
